Measured values reported in patent US8338426B2, “Piperazinyl derivatives useful as modulators of the neuropeptide Y2 receptor” (Janssen Pharmaceutica NV, priority 2007, dated 2012).
Like-named read-outs stand apart in the source and are kept apart here.

What was measured:
[1] = Pharmacokinetic study in dogs; type: in vivo, male Beagle dog; conditions: dog; for Vd: iv, 1 mg/kg
Description: Male Beagle Canines 11-15 kilograms in body weight were used. Three animals received a bolus oral dose of the compound via an oral gavage at a dose of 5 mg/kg. Three animals received a bolus intravenous dose of the compound at a dose of 1 mg/kg in the right cephalic vein. Blood sampling of the cephalic or jugular veins followed dosing over a time course. Blood samples consisted of 4-5 mL samples taken from the vein into heparinized blood collection tubes containing Li Heparin. These blood samples were then centrifuged. The plasma was retained and kept frozen in a −40° C. freezer until processed for analysis. The time course for sampling was as follows: 0.25, 0.5, 1, 2, 4, 8, and 24 hours for oral administration and 0.08, 0.25, 0.5, 1, 2, 4, 8, and 24 hours for intravenous administration. These samples were analyzed by LC-MS/MS. The LC-MS/MS data was analyzed using a non-compartmental model with the software package WinNonlin Version 4.0.1 (Pharsight, Palo Alto, Calif.). All figures plasma level versus time figures were created using GraphPad Prism 4 (San Diego, Calif.).
The compound of formula (A) was formulated in 20% hydroxypropyl-β-cyclodextrine. Oral and intravenous pharmacokinetic parameters for the compound of formula (A) were determined in male Beagles with results as shown in FIG. 3 and Table 3 below.

Y5 receptor subtype = molecular target: T1, Y5 receptor subtype (Homo sapiens, UniProt Q15761); test: [125I]PYY binding in HEK-293 cells expressing the Y5 receptor subtype; conditions: concentrations up to 10; HEK-293 cells expressing Y5
T1 construct: expressed in transfected cells; host or cells: HEK-293 cells
T1 sequence (Q15761 1-445): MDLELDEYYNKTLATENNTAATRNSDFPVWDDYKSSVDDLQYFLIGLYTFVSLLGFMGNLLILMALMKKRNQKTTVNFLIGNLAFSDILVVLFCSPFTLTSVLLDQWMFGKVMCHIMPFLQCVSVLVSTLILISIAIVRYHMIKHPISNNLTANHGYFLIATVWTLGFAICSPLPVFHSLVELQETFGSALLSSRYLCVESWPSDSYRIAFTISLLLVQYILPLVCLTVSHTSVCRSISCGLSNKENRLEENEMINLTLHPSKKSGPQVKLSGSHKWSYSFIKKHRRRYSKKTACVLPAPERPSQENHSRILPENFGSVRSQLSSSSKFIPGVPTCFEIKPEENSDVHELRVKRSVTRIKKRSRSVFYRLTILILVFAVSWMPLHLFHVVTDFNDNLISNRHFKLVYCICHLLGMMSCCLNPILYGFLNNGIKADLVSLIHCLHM
Description: The selectivity of the compound of formula (A) was further evaluated in a large variety of ion-channels, transporters and receptor-binding assays including the Y1 receptor subtype. These assays were performed by CEREP (Celles L'Evescault, France; www.cere.com<http//www.cerea.com>). Selectivity vs the Y5 receptor subtype was evaluated as described in Bonaventure, P., D. Nepomuceno, C. Mazur, B. Lord, D. A. Rudolph, J. A. Jablonowski, N. I. Carruthers and T. W. Lovenberg, J Pharmacol Exp Ther. 2004, 308, 1130.

[2] = system: amphetamine-induced hyperactivity; test: Amphetamine-induced hyperactivity in c57bl6/j mice; type: in vivo; conditions: 3 and 10 mg/kg i.p., amphetamine 3 mg/kg s.c.
Description: To the extent that ethanol-induced hyperactivity is mediated, at least partially, by the dopaminergic system, additional experiments were designed to evaluate whether the compound of formula (A) attenuates the hyperactivity induced by amphetamine, an indirect dopamine agonist.
Locomotor activity was measured with a Hamilton Kinder motor monitor infrared beam apparatus equipped with a SmartFrame cage rack throughout which basic movements were recorded. These experiments were conducted using a between subject design. Sessions started when 8-10-week old c57bl6/j mice were located in the test cages and they lasted for 180 min. Amphetamine (3 mg/kg, s.c.) was administered 60 min after the beginning of the session. The compound of formula (A) (1,3,10 mg/kg, i.p.) or vehicle was administered 15 min prior to amphetamine and locomotor activity was measured for an additional 120 min. The average of basic movements recorded for 60 min after amphetamine was calculated for each animal. Data were analyzed with one-way analysis of variance (ANOVA) using Graph Pad.

mouse Y2 receptor = molecular target: T2, mouse Y2 receptor (Mus musculus, UniProt P97295); test: Neuropeptide Y2 radioligand binding assay, [125I]PYY, mouse hippocampus membranes; conditions: read-out: mY2 pKi (converted)
T2 construct: membranes from rat or mouse hippocampus were prepared; from tissue; host or cells: mouse hippocampus membranes
T2 sequence (P97295 1-381): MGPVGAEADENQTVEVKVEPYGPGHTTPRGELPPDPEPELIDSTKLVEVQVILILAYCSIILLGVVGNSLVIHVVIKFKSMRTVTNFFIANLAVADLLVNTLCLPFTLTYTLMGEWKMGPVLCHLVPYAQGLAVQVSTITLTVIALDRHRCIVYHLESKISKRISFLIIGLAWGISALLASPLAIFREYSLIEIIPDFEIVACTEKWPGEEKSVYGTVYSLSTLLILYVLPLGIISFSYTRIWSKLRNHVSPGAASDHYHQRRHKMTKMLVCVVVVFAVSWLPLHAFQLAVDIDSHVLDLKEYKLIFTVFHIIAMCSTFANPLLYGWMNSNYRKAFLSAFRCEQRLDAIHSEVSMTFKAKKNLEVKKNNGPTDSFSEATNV
Description: Radioligand binding assays for the human and rat/mouse Y2 receptor were performed as described in Bonaventure, P., D. Nepomuceno, C. Mazur, B. Lord, D. A. Rudolph, J. A. Jablonowski, N. I. Carruthers and T. W. Lovenberg, J Pharmacol Exp Ther. 2004, 308, 1130.
KAN-Ts endogenously expressing Y2 receptors were used, for the rat and mouse Y2 receptor, membranes from rat or mouse hippocampus were prepared. Membranes were incubated with [^125I]PYY (80 pM) in the presence or absence of test compound for 1 h at rt. The reaction was stopped by filtration through GF/C filter plates pre-soaked in 0.3% polyethylenimine and subsequently washed with Tris-HCl, 50 mM, 5 mM EDTA buffer. Plates were dried for 1 h in a 55° C. oven, scintillation fluid was added and the radioactivity was counted in a Packard TopCount. Specific binding to the NPY receptor subtypes was determined by radioactivity that was bound in the presence of 1 μM NPY.
Apparent Ki values were calculated as K=IC50/(1+C/KD), where C is concentration of the radioligand and pKi=−log Ki. Data presented below are expressed as mean±S.E.M.

[3] = male, beagle, plasma, IV 1 mg/kg
[4] = male, beagle, plasma, PO 5 mg/kg

Lambda z ([1]; IV 1 mg/kg): 1.47 h⁻¹ | Lambda z ([1]; PO 5 mg/kg): 0.71 h⁻¹ | Vd ([1]; male, beagle, plasma, IV 1 mg/kg, read-out: VSS): 0.57 L/kg | Vd ([1]; male, beagle, plasma, IV 1 mg/kg, read-out: Vz): 0.64 L/kg | AUC(0-inf) [1, 3]: 1890 nM·h | AUC(0-t) [1, 3]: 890 nM·h | C0 [1, 3]: 6.24 µM | MRT inf [1, 3]: 36.6 min | clearance [1, 3]: 0.948 L/h/kg | half-life [1, 3]: 28.2 min | AUC(0-inf) [1, 4]: 2790 nM·h | AUC(0-t) [1, 4]: 2730 nM·h | Cmax [1, 4]: 1.55 µM | MRT inf [1, 4]: 103 min | Tmax [1, 4]: 49.8 min | half-life [1, 4]: 59.4 min | Ki (mouse Y2 receptor): 4.47 nM
SMILES: CCN(CC)C(=O)C(c1ccccc1)N1CCN(c2ccc(NC(=O)c3ccccc3-c3cccnc3)cc2F)CC1 (racemic) [Cmpd (A), N-{4-[4-(Diethylcarbamoyl-phenyl-methyl)-piperazin-1-yl]-3-fluoro-phenyl}-2-pyridin-3-yl-benzamide]
competition for specific [125I]PYY receptor binding sites, Y5 (Y5 receptor subtype): failed to compete for significant amounts | effect on amphetamine-induced hyperactivity [2]: blocked amphetamine-induced hyperactivity
